Our source for the IC50 values is US20240415819A1, “MACROCYCLIC COMPOUNDS AS PROTEASOME SUBUNIT BETA TYPE-5 INHIBITORS” (Lead Discovery Center GmbH, priority 2021, published 2024).

Where only a bound is given, the exact number is not on record here.

Assay [1] deals with T1, β5 subunit of the human immunoproteasome (IPS) (Homo sapiens, UniProt P28062).
T1 construct: purchased Boston Biochem E-370
Put plainly: β5 inhibition assay, human immunoproteasome (Suc-LLVY-AMC). The assay is classed as biochemical. The conditions noted are these: IC50 class, Suc-LLVY-AMC substrate. A digest of the protocol:
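Human immunoproteasome (1 nM final) was preincubated 10 min at RT with compound in 100 mM HEPES pH 7.5, 50 mM NaCl, 0.02% SDS, 1 mM DTT. Suc-LLVY-AMC (22.6 μM final) was then added for 4 h at RT in the dark. After stopping with 1 μM bortezomib, AMC fluorescence was read (ex 355/em 460 nm).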

The target of assay [2] is T2, β5 subunit of the human constitutive proteasome (CPS) (Homo sapiens, UniProt P28074).
T2 construct: purchased Boston Biochem E-360
Put plainly: β5 inhibition assay, human constitutive proteasome (Suc-LLVY-AMC). The format is biochemical. The conditions noted are these: IC50 class, Suc-LLVY-AMC substrate. The protocol:
The enzymatic activity of the β5 subunit of the human constitutive proteasome (CPS) is analyzed. In another assay, which differs from the assay of the human constitutive proteasome only in using the human immunoproteasome (IPS) the enzymatic activity of the β5 subunit of the human immunoproteasome (IPS) is analyzed. […] Inhibition is indicated as IC50 [nM] (“-”=not measured).

Assay [3] deals with A549 (human lung carcinoma cell line). The experiment in a line: Glo assay of A549 cells (Table 3; ProteasomeGlo plating scheme). The format is cell-based. As to conditions: Homo sapiens; A549 cells; read-out: PGLo A549. A digest of the protocol: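 Luminescent read-out of cellular chymotrypsin-like proteasome activity: cells exposed to compound 105 min at 37° C., 5% CO2, then given Suc-LLVY-Glo reagent, shaken 2-5 min and kept dark 10-15 min before reading. Values are IC50 [nM].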

In the next assay the test system is HT-29 cells. Put plainly: CellTiter-Glo luminescent cell viability assay with HT-29 cells (72h incubation). The assay is classed as cell-based, human. The conditions noted are these: Homo sapiens, HT-29, HT29 cells, read-out: CTG HT29. An outline of the steps:
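400 cells per well in DMEM/10% FCS were dosed after 24 h and kept 72 h at 37 °C, 5% CO2. ATP-based luminescence (CellTiter-Glo) normalized to DMSO and 10 μM staurosporine controls; IC50 by dose-response fit.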
On the technique in general: Cellular ATP, detected with luciferase, serves as a proxy for viable cell number.

`Cc1ccc2cc1CNC(=O)[C@H](CCc1ccccc1)NC(=O)[C@@H](NC(=O)CC1=NN(c3ccccc3)C(=O)C1)CC(=O)N1CCCC(CCO2)C1` (stereo partly drawn) [Compound 334, N-((9S,12S)-5^4-methyl-8,11,14-trioxo-9-phenethyl-4-oxa-7,10-diaza-1(3,1)-piperidina-5(1,3)-benzenacyclotetradecaphane-12-yl)-2-(5-oxo-1-phenyl-4,5-dihydro-1H-pyrazol-3-yl)acetamide]: the IC50 in assay [1] is under 100 nM; in assay [2], under 100 nM; in assay [3], 100 to 500 nM; in the assay with HT-29 cells it was under 100 nM.
For `Cc1ccc2cc1CNC(=O)[C@H](CCc1ccccc1)NC(=O)[C@@H](NC(=O)c1ncccn1)CC(=O)N1CCCC(CCO2)C1` (stereo partly drawn) [Compound 32, N-((9S,12S)-5^4-methyl-8,11,14-trioxo-9-phenethyl-4-oxa-7,10-diaza-1(3,1)-piperidina-5(1,3)-benzenacyclotetradecaphane-12-yl)pyrimidine-2-carboxamide], the IC50 (in assay [1]; in assay [2]; in assay [3]; in the assay with HT-29 cells) was under 100 nM in each case.
Regarding `COC(C(=O)N[C@H]1CC(=O)N2CCCC(CCOc3ccc(C)c(c3)CNC(=O)[C@H](CCc3ccccc3)NC1=O)C2)c1ccc(N)cc1` (stereo partly drawn) [Compound 326, 2-(4-aminophenyl)-2-methoxy-N-((9S,12S)-5^4-methyl-8,11,14-trioxo-9-phenethyl-4-oxa-7,10-diaza-1(3,1)-piperidina-5(1,3)-benzenacyclotetradecaphane-12-yl)acetamide], the IC50 (in assay [1]; in assay [2]; in assay [3]; in the assay with HT-29 cells) was under 100 nM in each case.
Regarding `Cc1ccc2cc1CNC(=O)C(CCc1cnc3cccnc3c1)NC(=O)[C@@H](NC(=O)OCc1ccccc1)CC(=O)N1CCCC(CCO2)C1` (stereo partly drawn) [Compound 511, benzyl ((12S)-9-(2-(1,5-naphthyridin-3-yl)ethyl)-5^4-methyl-8,11,14-trioxo-4-oxa-7,10-diaza-1(3,1)-piperidina-5(1,3)-benzenacyclotetradecaphane-12-yl)carbamate], the IC50 (in assay [1]; in assay [2]; in assay [3]; with HT-29 cells) was under 100 nM in each case.
In the case of `CC(=O)N[C@H]1CC(=O)N2CCCC(CCOc3ccc(C)c(c3)CNC(=O)C(c3cn[nH]c3)NC1=O)C2` (stereo partly drawn) [Compound 562, N-((12S)-5^4-methyl-8,11,14-trioxo-9-(1H-pyrazol-4-yl)-4-oxa-7,10-diaza-1(3,1)-piperidina-5(1,3)-benzenacyclotetradecaphane-12-yl)acetamide], the IC50 is under 100 nM in assay [1], under 100 nM in assay [2], 100 to 500 nM in assay [3] and 100 to 500 nM in the assay on HT-29 cells.
Turning to `Cc1ccc2cc1CNC(=O)[C@H](CCc1ccccc1)NC(=O)[C@@H](NC(=O)OCc1ccccc1)CCCCC(=O)NCCCCO2` [Compound 347, benzyl ((13S,16S)-1^4-methyl-8,14,17-trioxo-16-phenethyl-2-oxa-7,15,18-triaza-1(1,3)-benzenacyclononadecaphane-13-yl)carbamate], the IC50 in assay [1] was under 100 nM; in assay [2], under 100 nM; in assay [3], 100 to 500 nM; in the assay on HT-29 cells it was under 100 nM.
